“Also recorded” adds a separate entry of the source.

Assay [1] relates to Candida albicans NBRC 1594. Put plainly: Evaluation of fungistatic effect (streak culture on brain heart infusion agar plate, visual observation). In kind it is cell-based. The conditions noted are these: for Evaluation of fungistatic effect: 1000 ppm-treated plot, agar plate, 30°C for 1 day; for fungicidal: conclusion drawn from fungal growth at 1000 ppm. The procedure:
Ten milliliters of a brain heart infusion agar (manufactured by Difco) was sterilized by autoclaving at 121°C for 15 minutes and then cooled down to 50°C. To this, 100 µL of a solution of the test sample in dimethyl sulfoxide (DMSO) was added, and the mixture was stirred until homogeneous. The homogeneous mixture was added to a sterilized culture dish to prepare an agar plate. The concentration of the test sample in the agar plate was 10 ppm, 100 ppm, 300 ppm or 1000 ppm. Next, one loop of a cryopreserved test fungus (Candida albicans NBRC 1594) was streaked on each agar plate and cultured at 30°C for 1 day. […] When no growth was observed along the streak line on the agar plate, the test sample was determined to be fungistatic at the indicated concentration.

Assay [2] concerns Candida albicans NBRC 1594. Put plainly: Evaluation of biofilm formation inhibitory effect (96-well microplate static culture, crystal violet staining, O.D. 600). The format is cell-based. The note with it: class by 50% inhibitory concentration, threshold 20 ppm. The protocol:
A potato dextrose agar (manufactured by Difco) was sterilized by autoclaving at 121°C for 15 minutes, added to a sterilized culture dish, and solidified to prepare an agar plate. A cryopreserved test fungus was spread on this agar plate and cultured at 30°C for 2 days. A yeast nitrogen base with 2% glucose (manufactured by Difco) was diluted 10-fold and sterilized by autoclaving at 121°C for 15 minutes. Twenty milliliters of this sterilized medium was placed into a conical flask with a baffle, and one loop of the agar-cultured test fungus was inoculated into the conical flask. Preculture was performed at 30°C with agitation at 150 rpm for 24 hours. Then, the fungal cells were collected by centrifugation (4700 rpm, 10 minutes, 20°C) . The collected fungal cells were washed with 20 mL of physiological saline and collected by centrifugation again (4700 rpm, 10 minutes, 20°C) . The collected fungal cells were resuspended in 10 mL of a Sabouraud-dextrose broth (liquid medium which contained 1.0% by mass of peptone and 4.0% by mass of glucose and was adjusted to a pH of 5.7 with 1 N hydrochloric acid, and hereinafter, it is called "SG medium"). This resuspension was diluted 20-fold with SG medium and used as a test fungal suspension. […] The test samples were separately dissolved in dimethyl sulfoxide (DMSO) to prepare test sample solutions. Two microliters of each test sample solution and 198 µL of the test fungal suspension were added to wells of a 96-well microplate (trade name: TC plate 96 well (Cell+); manufactured by Sarstedt) . The concentration of the test sample in the test sample solution was such that the concentration of the test sample in the combined total amount of the test sample solution and the test fungal suspension, i.e., the concentration of the test sample in the well would be 5 ppm, 25 ppm, 50 ppm or 100 ppm. Static culture was performed in the 96-well microplate containing the test sample solution and the test fungal suspension at 30°C for 2 days to allow biofilm formation to proceed in each well. […] After the static culture, the liquid in each well, including the test sample solution, the culture medium and the like, was removed, and the residue adherent to each well (cells, secretions, deposits, etc.) was regarded as a biofilm. To each well, 50 µL of a 0.01% by mass aqueous crystal violet solution (trade name, manufactured by Becton, Dickinson and Company) was added for staining of the biofilm. […] Then, 200 µL of ethanol was added to each well to elute the crystal violet bound to the biofilm, and the degree of formation of the biofilm adherent to the microplate was quantified. The quantification was performed by measuring the absorbance at 600 nm (O.D. 600) in each well with a microplate reader (model: SH-9000 Lab; manufactured by CORONA […] Co., Ltd.). The absorbance at 600 nm measured for the biofilm formed in the control well was used as the reference absorbance and assumed as 100% in terms of the degree of biofilm formation. The degree of biofilm formation for each test sample was calculated by comparison of the absorbance for the test sample with the reference absorbance. […] The graph of the logarithmic approximation curve was used to calculate the concentration of the test sample where the absorbance for the test sample is equal to 50% of the reference absorbance, that is, the degree of biofilm formation was 50% (hereinafter called "50% inhibitory concentration"). […]

Another assay deals with Candida biofilm. The conditions noted are these: Table 2 of Patent Literature 1; cited from earlier work.

Regarding “diglyceryl dicaprylate [Present invention product 2]”, in assay [1], the “Evaluation of fungistatic effect” value is on record as “Fungal growth was observed in a 1000 ppm-treated plot. No fungistatic effect”; the fungicidal entry was “none of the present invention products 1, 2, 3 and 4 were fungicidal”. Besides, in assay [2], the Evaluation entry is given as “Excellent in inhibition of biofilm formation (When the 50% inhibitory concentration of the test sample was 20 ppm or less, the test sample was regarded as excellent in the inhibition of biofilm formation)”.

As to `CCCCCCCCCCCC(=O)OCC(O)COC(=O)CCCCCCCCCCC` [Reference product 1, monoglyceryl dilaurate, reference compound], in assay [1], the “Evaluation of fungistatic effect” value is “not fungistatic; also recorded: Fungal growth was observed in a 1000 ppm-treated plot. No fungistatic effect” and the fungicidal result was “not fungicidal”. Also, the Evaluation entry in assay [2] is listed as “Poor in inhibition of biofilm formation (when the 50% inhibitory concentration of the test sample was more than 20 ppm, the test sample was regarded as poor in the inhibition of biofilm formation)”.

In the case of glyceryl dilaurate, in the assay on Candida biofilm, the “effective against biofilm formation” value was “less effective against biofilm formation than glyceryl monolaurate”.

Consider diglyceryl monocaprylate, for which the “effective against biofilm formation” value with Candida biofilm is “poorly effective against biofilm formation”.

Regarding “monoglyceryl dicaprylate [Present invention product 1]”, in assay [1], the “Evaluation of fungistatic effect” value was “Fungal growth was observed in a 1000 ppm-treated plot. No fungistatic effect”; the fungicidal entry is “none of the present invention products 1, 2, 3 and 4 were fungicidal”. Further, in assay [2], the Evaluation entry is given as “Excellent in inhibition of biofilm formation (When the 50% inhibitory concentration of the test sample was 20 ppm or less, the test sample was regarded as excellent in the inhibition of biofilm formation)”.

As to “diglyceryl dicaprylate [Present invention product 3]”, in assay [1], the “Evaluation of fungistatic effect” value is reported as “Fungal growth was observed in a 1000 ppm-treated plot. No fungistatic effect”; the fungicidal entry was “none of the present invention products 1, 2, 3 and 4 were fungicidal”. Moreover, the Evaluation entry in assay [2] was “Excellent in inhibition of biofilm formation (When the 50% inhibitory concentration of the test sample was 20 ppm or less, the test sample was regarded as excellent in the inhibition of biofilm formation)”.

`CC(=O)N1CCN(c2ccc(OCC3COC(Cn4ccnc4)(c4ccc(Cl)cc4Cl)O3)cc2)CC1` (stereo not drawn) [Reference product 2, ketoconazole, reference compound]: in assay [2], the Evaluation result is “Poor in inhibition of biofilm formation (when the 50% inhibitory concentration of the test sample was more than 20 ppm, the test sample was regarded as poor in the inhibition of biofilm formation)”.
